Patent publication US20080206149A1, “METHOD, DYE AND MEDICAMENT FOR STAINING THE INTERNAL LIMITING MEMBRANE, EPIRETINAL MEMBRANE, THE VITREOUS AND/OR THE CAPSULE OF AN EYE” (LUDWIG-MAXIMILIANS-UNIVERSITAT MUNCHEN, priority 2005, published 2008)

Legend:
human lens capsule = assay: Capsulorhexis in patients with white cataracts (Example 2); format: in vivo
Excerpt: In previous experimental studies, we have investigated a number of vital dyes in-vivo and in-vitro in order to evaluate their staining characteristics and safety (C. Haritoglou, A. Yu, W. Freyer, S. G. Priglinger, C. Alge, K. Eibl, C. A. May, U. Welge-Luessen, A. Kampik, “An evaluation of novel vital dyes for intraocular surgery”, Invest Ophthalmol Vis Sci 46 (2005), pp. 3315-22; F. Schuettauf, C. Haritoglou, C. A. May, R. Rejdak, A. Mankowska, W. Freyer, K. Eibl, E. Zrenner, A. Kampik, S. Thaler, “Administration of novel dyes for intraocular surgery: an in vivo toxicity animal study”, Invest Ophthalmol Vis Sci 47 (2006), pp. 3573-8; C. Haritoglou, R. Tadayoni, C. A. May, C. A. Gass, W. Freyer, S. G. Priglinger, A. Kampik, “Short-term in vivo evaluation of novel vital dyes for intraocular surgery”, Retina 26 (2006), pp. 673-8). […] Prior to the application in humans, the toxicity of bromphenol blue had been thoroughly investigated in experimental settings including ex-vivo cell culture models and in-vivo animal studies with intraocular exposure times of up to seven days (C. Haritoglou, A. Yu, W. Freyer, S. G. Priglinger, C. Alge, K. Eibl, C. A. May, U. Welge-Luessen, A. Kampik, “An evaluation of novel vital dyes for intraocular surgery”, Invest Ophthalmol Vis Sci 46 (2005), pp. 3315-22; F. Schuettauf, C. Haritoglou, C. A. May, R. Rejdak, A. Mankowska, W. Freyer, K. Eibl, E. Zrenner, A. Kampik, S. Thaler, “Administration of novel dyes for intraocular surgery: an in vivo toxicity animal study”, Invest Ophthalmol Vis Sci 47 (2006), pp. 3573-8; C. Haritoglou, R. Tadayoni, C. A. May, C. A. Gass, W. Freyer, S. G. Priglinger, A. Kampik, “Short-term in vivo evaluation of novel vital dyes for intraocular surgery”, Retina 26 (2006), pp. 673-8). […] The data obtained from these toxicity studies underlined the high biocompatibility of bromphenol blue. Bromphenol blue (C19H10Br4O5S, FW 670) has been used in the past as a vital stain to probe the blood-brain barrier and as a protein stain and as a pH indicator. In the present example, we describe experience using bromphenol blue to stain the human lens capsule in patients with white cataracts. This investigation was approved by the local ethics committee and the Institutional Review Board (IRB). Written informed consent was obtained from all patients prior to surgery.
Cataract formation was due to ocular trauma (n=2), uveitis (n=1) and unknown cause (n=2). Mean age was 59 years. All patients underwent a complete clinical examination before surgery. B-scan ultrasound of the globe was performed to rule out intraocular pathologies such as tumors or retinal detachments. Bromphenol blue powder was dissolved and diluted using BSS plus (balanced salt solution; Alcon Laboratories Inc., Fort Worth, Tex, USA) and sterilized using a 0.22 μm syringe filter. We used dye concentrations of approximately 0.1% (310 mOsm, pH 7.6). Five consecutive patients were included into this preliminary series of patients, three female and two male. Visual acuity was 20/400 or below before surgery and increased to 20/50 (mean) postoperatively. The dye was either injected into the air-filled (n=3) anterior chamber and carefully removed by injection of viscoelastic material (FIG. 7) immediately after injection or injected after having filled the anterior chamber with viscoelastic material (n=2) without prior air injection. In the latter case, the dye was evenly and gently distributed on the lens surface using the cannula and excessive dye was removed after completion of capsulorhexis (approximately one minute after application).

primary RPE cells = assay: Life-dead assay (propidium iodide / Hoechst 33342), primary RPE cells; format: cell-based; details: primary RPE cells, 0.2% and 0.02% dye, 24 hours after treatment, compared to BSS plus
Description: Invest Ophthalmol Vis Sci 2002; 43: 3575-82.
(§1) Confluent RPE and ARPE-19 cells were prepared and treated as described above. Cell viability was quantified based on a two-color fluorescence assay in which the nuclei of nonviable cells appear red because of staining by the membrane-impermeable dye propidium iodide (Sigma), whereas the nuclei of all cells were stained with the membrane-permeable dye Hoechst 33342 (Intergen, Purchase, N.Y.). […] For evaluation of cell viability, cells were washed in PBS and incubated with 2.0 μg/mL propidium iodide and 1.0 μg/mL Hoechst 33342 for 20 minutes at 37° C. Subsequently, cells were analyzed with an epifluorescence microscope (Axioskop; Zeiss, Göttingen, Germany). The labeled nuclei were then counted in fluorescence photomicrographs, and dead cells were expressed as a percentage of total nuclei in the field. The data are based on counts from three experiments performed in duplicate wells, with three to five documented representative fields per well.

vitreous [1] = assay: Staining of the vitreous during pars plana vitrectomy in porcine eyes; format: in vivo; details: graded by two examiners
Description: All dyes were dissolved and diluted using balanced salt solution (BSS plus; Alcon Laboratories Inc., Fort Worth, Tex).
Experiments were performed in animals (porcine eyes) and humans after approval of the local ethics committee had been obtained. All experiments were performed in compliance with the Declaration of Helsinki.
Ophthalmic surgery consisted of a standard pars plana vitrectomy. First, the transparent vitreous was removed as completely as possible. Then fluid air exchange was performed in order to avoid an uncontrolled distribution of the dye in the vitreous cavity. The dye was then injected into the air filled globe. After a period of one minute, the dye was washed out by irrigation with BSS. This was followed by an injection of the dye in concentrations from 0.2% to 2%. The staining of the vitreous was graded by two examiners who also performed the surgical procedures.

[2] = Light absorbing properties (UV/VIS/NIR spectrometer); format: physicochemical; details: measured up to a content of 0.05% dye
Description: Light absorption was measured in 0.05% solutions, with BSS plus as a solvent medium. Light absorption was measured instantly after preparation of a stock solution of the dye using a UV/VIS/NIR Spectrometer (Lambda 900, Perkin Elmer) between 200 and 1000 nm.

ARPE-19 cells = assay: Life-dead assay (propidium iodide / Hoechst 33342), ARPE-19 cells; format: cell-based; details: ARPE-19 cells, 0.2% and 0.02% dye, 24 hours after treatment, compared to BSS plus
Description: as §1

vitreous [3] = assay: Staining of the vitreous during vitrectomy in humans using BPB (Example 1); format: in vivo; details: 0.2%
Description: All patients (n=9) gave their written informed consent before surgery. […] A standard three port pars plana vitrectomy was performed. First, the transparent vitreous was removed as thoroughly as possible using the vitrectomy probe. Then fluid air exchange was performed and a few drops of the dye (BPB, 0.2%) were injected. After one minute, the dye was washed out by irrigation.

[4] = test system: anterior segment of the eye; details: animals, dye exposure of seven days, cited from earlier work
[5] = approximately 0.1% dye, white cataract patients

SMILES: O=S1(=O)OC(c2cc(Br)c(O)c(Br)c2)(c2cc(Br)c(O)c(Br)c2)c2ccccc21 [Bromophenol blue, Bromophenole blue]
- contrast between the white lens and the stained lens capsule (human lens capsule; all patients): excellent contrast
- visual acuity before surgery (human lens capsule; [5]): 20/400
- visual acuity postoperatively (mean) (human lens capsule; [5]): 20/50
- staining of the anterior lens capsule (human lens capsule; approximately 0.1%, both injection techniques): predictable and uniform staining
- complications such as corneal edema, inflammation or decrease of corneal endothelial cells (human lens capsule; follow-up up to five months postoperatively): no complications noted
- penetration of the lens capsule by the dye (human lens capsule; human, in vivo): did not penetrate the lens capsule
- unwanted staining of other tissues such as the iris or the corneal endothelium (human lens capsule; human, in vivo): no unwanted staining of other tissues
- residual dye on the anterior lens capsule rim or any other ocular tissue (human lens capsule; one day postoperatively): no residual dye was detected
- cell viability, nuclei of nonviable cells labeled with propidium iodide (primary RPE cells): did not affect cell survival
- staining effect of the vitreous (vitreous [1]; dye concentration 0.2%): good
- staining effect of the vitreous (vitreous [1]; dye concentration 2.0%): strong
- position of the long wavelength maximum, influence of dye concentration [2]: not influenced by the dye concentration
- cell viability, nuclei of nonviable cells labeled with propidium iodide (ARPE-19 cells): did not affect cell survival
- complications of complete removal of the vitreous (vitreous [3]; humans): without complications
- staining of vitreous remnants adherent to the retinal surface (vitreous [3]; washed out after one minute, patients with macular pucker or macular hole): bluish staining
- clinical examinations: signs of inflammatory responses or toxicity in the anterior segment ([4]; also higher dye concentrations): did not reveal any signs of inflammatory responses or toxicity
- histological abnormalities following enucleation [4]: no histological abnormalities
